In patent US20150119373A1, “NOVEL BETULINIC ACID DERIVATIVES AS HIV INHIBITORS” (HETERO RESEARCH FOUNDATION, priority 2012, published 2015):

How the values were obtained:
[1] = Cyto-toxicity assay (MTT) in MT2 cells without virus; format: cell-based; details: human
Experimental: For cyto-toxicity assay the same amount of MT2 cells as in antiviral assay without virus was added to the 96 well plates. The cyto-toxicity was measured using MTT reagent in parallel with p24 estimation. The percent viability is calculated in comparison with vehicle control.

HIV-1 strain 92HT599 = test: Antiviral activity: p24 estimation in MT2 cells infected with HIV-1 strain 92HT599; format: cell-based; details: Human immunodeficiency virus 1, MT2 cells, HIV-1 92HT599, ~96 hours, p24; for inhibition at 0.1 µM: 100 nM, read-out: Antiviral activity % inhibition 100 nM; for inhibition at 1 µM: 1000 nM, read-out: Antiviral activity % inhibition 1000 nM
Experimental: MT2 cells were infected with HIV-1 strain 92HT599 (10 TCID 50/30000 cells). The infected cells were plated at the concentration of […] cells per well in 96 well plate. Test compound was added to the micro plate in defined format with the final concentration of DMSO (vehicle) is not more than 1%. Incubation was carried out in CO2 incubator for ˜96 hours for viral infection. At the end of incubation period an aliquot from each well was taken for p24 estimation. The quantitation of p24 is an index for antiviral activity of the compound. Percent inhibition was calculated with reference to control values (vehicle controls).
p-24 estimation was carried out using Advance biosciences kit as per the procedure detailed by supplier.

| SMILES | viability at 100 nM [1] | viability at 1000 nM [1] | inhibition at 0.1 µM (HIV-1 strain 92HT599) | inhibition at 1 µM (HIV-1 strain 92HT599) |
| --- | --- | --- | --- | --- |
| CC(C)(CC(=O)O[C@H]1CC[C@]2(C)[C@H]3CC[C@@H]4[C@H]5[C@H](C6(C)CC6)CC[C@]5(C(=O)N5CCCCC5)CC[C@@]4(C)[C@]3(C)CC[C@H]2C1(C)C)C(=O)O [Compound 3, 2,2-dimethyl-4-oxo-4-((1R,3aS,5aR,5bR,7aR,9S,11aR,11bR,13aR,13bR)-5a,5b,8,8,11a-pentamethyl-1-(1-methylcyclopropyl)-3a-(piperidine-1-carbonyl)icosahydro-1H-cyclopenta[a]chrysen-9-yloxy)butanoic acid] | 100% | 99% | 97% | 97% |
| CC(C)(CC(=O)O)CC(=O)O[C@H]1CC[C@]2(C)[C@H]3CC[C@@H]4C5[C@H](C6(C)CC6)CC[C@]5(C(=O)N[C@H]5C[C@@H](C(=O)N6CCOCC6)C5(C)C)CC[C@@]4(C)[C@]3(C)CC[C@H]2C1(C)C (stereo partly drawn) [Example 52, 5-(((1R,3aS,5aR,5bR,7aR,9S,11aR,11bR,13aR)-3a-(((1S,3R)-2,2-dimethyl-3-(morpholine-4-carbonyl)cyclobutyl)carbamoyl)-5a,5b,8,8,11a-pentamethyl-1-(1-methylcyclopropyl)icosahydro-1H-cyclopenta[a]chrysen-9-yl)oxy)-3,3-dimethyl-5-oxopentanoic acid] | 95% | 85% | 100% | 100% |
| C=C(C)[C@@H]1CC[C@]2(C(=O)N3CCCCC3)CC[C@]3(C)[C@H](CC[C@@H]4[C@@]5(C)CC[C@H](OC(=O)[C@H]6[C@@H](CC(=O)O)C6(C)C)C(C)(C)[C@@H]5CC[C@]43C)[C@@H]12 [Compound 2, 2-((1R,3S)-2,2-dimethyl-3-(((1R,3aS,5aR,5bR,7aR,9S,11aR,11bR,13aR,13bR)-5a,5b,8,8,11a-pentamethyl-3a-(piperidine-1-carbonyl)-1-(prop-1-en-2-yl)icosahydro-1H-cyclopenta[a]chrysen-9-yloxy)carbonyl)cyclopropyl)acetic acid] | 96% | 95% | 77% | 98% |
| C=C(C)[C@@H]1CC[C@]2(C(=O)N3CCN(CC)CC3)CC[C@]3(C)[C@H](CC[C@@H]4[C@@]5(C)CC[C@H](OC(=O)[C@H]6[C@@H](CC(=O)O)C6(C)C)C(C)(C)[C@@H]5CC[C@]43C)[C@@H]12 [Example 19, 2-((1R,3S)-3-(((1R,3aS,5aR,5bR,7aR,9S,11aR,11bR,13aR,13bR)-3a-(4-ethylpiperazine-1-carbonyl)-5a,5b,8,8,11a-pentamethyl-1-(prop-1-en-2-yl)icosahydro-1H-cyclopenta[a]chrysen-9-yloxy)carbonyl)-2,2-dimethylcyclopropyl)aceticacid] | 100% | 100% | 91% | 95% |
| CC(C)(CC(=O)O[C@H]1CC[C@]2(C)[C@H]3CC[C@@H]4[C@H]5[C@H](C6(C)CC6)CC[C@]5(C(=O)N5CCN(C(=O)C(C)(CO)CO)CC5)CC[C@@]4(C)[C@]3(C)CC[C@H]2C1(C)C)C(=O)O [Example 35] | 70% | 81% | 26% | 84% |
| CC1([C@@H]2CC[C@]3(C(=O)N4CCC(OCCN5CCOCC5)CC4)CC[C@]4(C)[C@H](CC[C@@H]5[C@@]6(C)CC[C@H](OC(=O)[C@H]7C[C@@H](C(=O)O)C7(C)C)C(C)(C)[C@@H]6CC[C@]54C)[C@@H]23)CC1 [Example 48, (1R,3S)-2,2-dimethyl-3-((((1R,3aS,5aR,5bR,7aR,9S,11aR,11bR,13aR,13bR)-5a,5b,8,8,11a-pentamethyl-1-(1-methylcyclopropyl)-3a-(4-(2-morpholinoethoxyl)piperidine-1-carbonyl)icosahydro-1H-cyclopenta[a]chrysen-9-yl)oxy)carbonyl)cyclobutane-1-carboxylic acid] | 100% | 100% | 97% | 99% |
| CC(C)(CC(=O)O[C@H]1CC[C@]2(C)[C@H]3CC[C@@H]4C5[C@H](C6(C)CC6)CC[C@]5(C(=O)N[C@H]5C[C@@H](C(=O)N6CCOCC6)C5(C)C)CC[C@@]4(C)[C@]3(C)CC[C@H]2C1(C)C)C(=O)O (stereo partly drawn) [Example 51, 4-(((1R,3aS,5aR,5bR,7aR,9S,11aR,11bR,13aR)-3a-(((1S,3R)-2,2-dimethyl-3-(morpholine-4-carbonyl)cyclobutyl)carbamoyl)-5a,5b,8,8,11a-pentamethyl-1-(1-methylcyclopropyl)icosahydro-1H-cyclopenta[a]chrysen-9-yl)oxy)-2,2-dimethyl-4-oxobutanoic acid] | 85% | 83% | 100% | 100% |
| CC(CO)(CO)C(=O)N1CCN(C(=O)[C@]23CC[C@@H](C4(C)CC4)[C@@H]2[C@H]2CC[C@@H]4[C@@]5(C)CC[C@H](OC(=O)[C@H]6C[C@@H](C(=O)O)C6(C)C)C(C)(C)[C@@H]5CC[C@@]4(C)[C@]2(C)CC3)CC1 [Example 36] | 77% | 90% | 33% | 99% |
| [2H]C([2H])([2H])C(N1CCN(C(=O)[C@H]2C[C@@H](NC(=O)[C@]34CC[C@@H](C(=C)C)[C@@H]3[C@H]3CC[C@@H]5[C@@]6(C)CC[C@H](OC(=O)CC(C)(C)C(=O)O)C(C)(C)[C@@H]6CC[C@@]5(C)[C@]3(C)CC4)C2(C)C)CC1)C([2H])([2H])[2H] [Example 8, 4-((1R,3aS,5aR,5bR,7aR,9S,11aR,11bR,13aR,13bR)-3a-((1R,3S)-3-(4-(1-methylethyl-2,2,2,1′,1′,1′-D6)piperazine-1-carbonyl)-2,2-dimethylcyclobutylcarbamoyl)-5a,5b,8,8,11a-pentamethyl-1-(prop-1-en-2-yl)icosahydro-1H-cyclopenta[a]chrysen-9-yloxy)-2,2-dimethyl-4-oxobutanoic acid] | 90% | 97% | 100% | 100% |
| COCCOCCOC1CCN(C(=O)[C@]23CC[C@@H](C4(C)CC4)[C@@H]2[C@H]2CC[C@@H]4[C@@]5(C)CC[C@H](OC(=O)CC(C)(C)C(=O)O)C(C)(C)[C@@H]5CC[C@@]4(C)[C@]2(C)CC3)CC1 [Example 43, 4-(((1R,3aS,5aR,5bR,7aR,9S,11aR,11bR,13aR,13bR)-3a-(4-(2-(2-methoxyethoxyl)ethoxy)piperidine-1-carbonyl)-5a,5b,8,8,11a-pentamethyl-1-(1-methylcyclopropyl)icosahydro-1H-cyclopenta[a]chrysen-9-yl)oxy)-2,2-dimethyl-4-oxobutanoic acid] | 100% | 100% | 99% | 99% |
